According to patent US10570463B2, “Nucleic acid modifying agents and uses thereof” (BIOTIUM, INC., priority 2014, dated 2020):
Entries after “also recorded” stand apart in the source; their conditions may differ.

Legend:
swabbed S. epidermidis = test: Viability PCR (dCt) in Staphylococcus epidermidis collected by swabbing; format: cell-based; settings: live and heat-killed S. epidermidis dried on plastic and swabbed; FIG. 5
Method: As in Example 16, Staphylococcus epidermidis was cultured in nutrient broth (NB) overnight at 37° C. The following day, the absorbance of the cultures at 600 nm was measured and the cultures were diluted to OD600=1.0 in growth media. For dead cell samples, bacteria were placed in a 95° C. heat block for 5 minutes, and then allowed to return to room temperature. 1200 uL of live or dead bacteria were spread separately onto sterile plastic petri dishes and air-dried for four hours. To mimic a common method of bacterial sample collection, a sterile cotton swab was moistened with NB, swabbed on the plate and swirled in a tube containing 1200 uL NB. This process was repeated 3 times each for live and dead bacteria, until most of the bacteria from the plate had been transferred into the media. 400 uL of swabbed bacteria was pipetted into tubes, and either left untreated, treated with PMA dye, or treated with Compound 014, as described in Example 16. Viability PCR was performed and the effect of each dye was measured by determining the dCt. The dCt was calculated by subtracting the Ct of untreated sample from dye-treated sample. […] The dCt values are shown above each bar.

Salmonella enterica = test: Viability PCR (dCt, 16S rDNA) after dye treatment and photolysis, cultured Salmonella enterica; format: cell-based; settings: 50 uM dye, compared with PMA, FIG. 3B
Method: (§1) Escherichia coli, Salmonella enterica, and Bacillus subtilis were cultured in tryptic soy broth (TSB). Staphylococcus epidermidis was cultured in nutrient broth (NB). Bacteria were cultured overnight at 37° C. The following day, the absorbance of the cultures at 600 nm was measured and the cultures were diluted to OD600=1.0 in growth media. Bacteria cultures were pipetted into 1.5 mL screw-top tubes at 400 uL per tube. For dead cell samples, tubes were placed in a 95° C. heat block for 5 minutes, and then allowed to return to room temperature. […]
(§2) PCR was performed using the universal primers DG74 and RW01 which amplify a 370-bp region of the 16S rDNA. […] 25 sec, 72° C., acquiring fluorescence after this step. Using the Rotor-Gene Q software, normalized fluorescence and Ct values were calculated. The change in Ct (dCt) caused by a dye was calculated by subtracting the Ct of the untreated bacteria from the Ct of the dye-treated bacteria.
(§3) Live or dead Escherichia coli (FIG. 3A), Salmonella enterica (FIG. 3B), Bacillus subtilis (FIG. 3C) or Staphylococcus epidermidis (FIG. 3D) were either left untreated, treated with PMA, or treated with Compound 014. Viability PCR was performed and the effect of each dye was measured by determining the dCt. The dCt was calculated by subtracting the Ct of untreated sample from dye-treated sample. […]

Escherichia coli = test: Viability PCR (dCt, 16S rDNA) after dye treatment and photolysis, cultured Escherichia coli; format: cell-based; settings: 50 uM dye, compared with PMA, FIG. 3A
Method: as §1, §2, §3

Bacillus subtilis = test: Viability PCR (dCt, 16S rDNA) after dye treatment and photolysis, cultured Bacillus subtilis; format: cell-based; settings: 50 uM dye, compared with PMA, FIG. 2A, 3C
Method: as §1, §2
as §3, with “dead” for “dead Escherichia coli (FIG. 3A), Salmonella enterica (FIG. 3B),”, “2A)” for “3C)”, “2B)” for “3D)”, “one of two versions of commercial PMA products (cat #40013 and cat #40019, Biotium),” for “PMA,”, “104.1.” for “014.”

[1] = test system: Staphylococcus epidermidis; test: Viability PCR (dCt, 16S rDNA) after dye treatment and photolysis, cultured Staphylococcus epidermidis; format: cell-based; settings: 50 uM dye, 3D; for dCt, modification of DNA in live cells: live S. epidermidis, 470 nm light 15 min, FIG. 1, 2B
Method: Escherichia coli, Salmonella enterica, and Bacillus subtilis were cultured in tryptic soy broth (TSB). Staphylococcus epidermidis was cultured in nutrient broth (NB). Bacteria were cultured overnight at 37° C. The following day, the absorbance of the cultures at 600 nm was measured and the cultures were diluted to OD600=1.0 in growth media. Bacteria cultures were pipetted into 1.5 mL screw-top tubes at 400 uL per tube. For dead cell samples, tubes were placed in a 95° C. heat block for 5 minutes, and then allowed to return to room temperature. PMA products (cat #40013 and 40019, Biotium) and selected compounds of the disclosure (104.1, 014, or 020, where indicated) were diluted to 2.5 mM in water, and then 8 uL was added to the bacterial culture for a final concentration of 50 uM. Cultures were incubated on a rocker in the dark at room temperature for 10 minutes, and then exposed to 470 nm wavelength light in the PMA-Lite LED device for 15 minutes. Samples were centrifuged at 5000×g for 10 minutes and the supernatant was aspirated off. DNA was then purified from bacterial pellets using the Qiagen Blood and Tissue kit and eluted in 100 uL elution buffer.
PCR was performed using the universal primers DG74 and RW01 which amplify a 370-bp region of the 16S rDNA. Forward Primer DG74 sequence: 5′-AGG AGG TGA TCC AAC CGC A-3′. Reverse Primer RW01 sequence: 5′-AACTGGAGGAAGGTGGGGAT-3′. The following PCR mix was prepared for each sample: 12.5 uL Fast EvaGreen Master Mix (Biotium), 1 uL 5 uM primer mix, 9.5 uL water, and 2 uL isolated bacterial DNA. […] 25 sec, 72° C., acquiring fluorescence after this step. Using the Rotor-Gene Q software, normalized fluorescence and Ct values were calculated. The change in Ct (dCt) caused by a dye was calculated by subtracting the Ct of the untreated bacteria from the Ct of the dye-treated bacteria.
(§4) Live Staphylococcus epidermidis (a gram-positive bacteria) was either left untreated, treated with one of two versions of commercial PMA products (cat #40013 and 40019, Biotium), or treated with a compound of the present disclosure (compound 104.1, 014, or 020). Viability PCR was performed and the effect of each dye was measured by determining the dCt. The dCt was calculated by subtracting the Ct of untreated sample from dye-treated sample. […]
as §4, with “Live or dead Bacillus subtilis (FIG. 2A) or” for “Live”, “(FIG. 2B) were” for “(a gram-positive bacteria) was”, “cat #40019,” for “40019,”, “Compound 104.1.” for “a compound of the present disclosure (compound 104.1, 014, or 020).”

Jurkat cells [2] = test: Viability staining of live and heat-killed Jurkat cells, fluorescence microscopy; format: cell-based, human; settings: Cy3 filter
Method: 1:1 mixtures of live and heat-killed Jurkat cells were prepared and treated with PMA, as described in Example 21. The cells were transferred to a black optical bottom 96-well plate and imaged on an Olympus IX71 inverted fluorescence microscope using a Cy3 filter cube and Retiga 2000R Fast 1394 digital CCD camera with 300 msec exposure time. Imaging results are provided in FIG. 7A-D. The stained cells were either left unfixed (FIGS. 7A and B) or fixed and permeabilized (FIGS. 7C and D). Fluorescence images (FIGS. 7A and C) show stained cells, while merged fluorescence/phase contrast images (FIGS. 7B and D) show stained and unstained cells.

[3] = test system: Mycobacterium avium subspecies paratuberculosis (MAP); settings: PMA qPCR; cited from earlier work
[4] = test system: relatively short amplicons; settings: cited from earlier work
Staphylococcus aureus = settings: samples collected by swabbing from surfaces; cited from earlier work
Jurkat cells [5] = test: Viability staining of live and heat-killed Jurkat cells, flow cytometry; format: cell-based, human; settings: 1 uM
Method: Jurkat cells were maintained in RPMI media supplemented with 10% fetal bovine serum, 10 mM HEPES, and 1 mM sodium pyruvate. Cells were counted and diluted to 1.0×10^6 cells/mL in growth media. Cells were pelleted by centrifugation at 350×g and resuspended in PBS. Half of the cells were heat-killed by incubation in a 56° C. water bath for 45 minutes. After they had cooled to room temperature, live and dead cells were combined in a 1:1 ratio, pelleted and washed once with PBS, and resuspended in PBS at 1.0×10^6 cells/mL. Aliquots of 1 mL were pipetted into 1.5 mL microcentrifuge tubes. Working in the dark, PMA and compound 104.1 were diluted to 1 mM in water. 1 uL of the indicated compound was added to 1 mL of cells for a final concentration of 1 uM. Cells were incubated in the dark, rocking, for 10 minutes, then exposed to light in the PMA-Lite for 15 minutes. Cells were transferred to FACS tubes and pelleted. Half of the tubes were placed at 4° C. in the dark (unfixed). […]
Stained cells were analyzed by flow cytometry on a BD LSRII. For detection of PMA and compound 104.1 staining, samples were excited with the 488 nm laser, and the signal was detected in the PE-Texas Red channel. Flow cytometry data was analyzed using FlowJo software from […]. […]

[6] = test system: Salmonella serovar Enteritidis; settings: cited from earlier work

Row | Compound | live/dead discrimination by dCt (swabbed S. epidermidis) | dCt, effect on dead cells (Salmonella enterica; heat-killed S. enterica) | dCt, effect on live cells (Salmonella enterica; live S. enterica) | dCt, effect on dead cells (Escherichia coli; heat-killed E. coli) | dCt, effect on live cells (Escherichia coli; live E. coli) | dCt, effect on dead cells (Bacillus subtilis; heat-killed B. subtilis) | dCt, effect on live cells (Bacillus subtilis; live B. subtilis) | dCt, effect on dead cells ([1]; heat-killed S. epidermidis, compared with PMA, FIG. 2B) | dCt, modification of DNA in live cells [1] | fluorescence discrimination of stained and unstained cells, fixed and permeabilized (Jurkat cells [2]; fixed and permeabilized cells, FIG. 7C, 7D) | fluorescence discrimination of stained and unstained cells, unfixed (Jurkat cells [2]; unfixed cells, FIG. 7A, 7B) | entry of dye into viable cells [3] | effect of PMA treatment on amplification of short amplicons [4] | determination of amount of living cells (Staphylococcus aureus) | staining of live and dead cells after fixation and permeabilization (Jurkat cells [5]; 2% formaldehyde, 0.1% Triton X-100, FIG. 6B, 6D) | staining of live and dead cells, unfixed (Jurkat cells [5]; unfixed cells, 488 nm laser, PE-Texas Red channel, FIG. 6A, 6C) | suppression of qPCR signal from killed bacteria ([6]; killed Salmonella serovar Enteritidis) | entry of dye into viable cells ([6]; viable Salmonella serovar Enteritidis)
1 | C[N+](C)(C)CCNC(=O)CCOCCOCCOCCOCCNC(=O)CCCCC[n+]1c(-c2ccccc2)c2cc(N)ccc2c2ccc(N=[N+]=[N-])cc21 [Compound 014] | showed a large difference between live and dead cells | greater effect on dead cells | less of an effect on live cells | greater effect on dead cells | less of an effect on live cells | greater effect on dead cells | less of an effect on live cells | greater effect on dead cells | little to none; also recorded: less of an effect on live cells |  |  |  |  |  |  |  |  | 
2 | [N-]=[N+]=Nc1ccc2c3ccc(N)cc3c(-c3ccccc3)[n+](CCCCCC(=O)NCCOCCOCCOCCOCCC(=O)N[C@@H](CS(=O)(=O)[O-])C(=O)O)c2c1 [Compound 020] |  |  |  |  |  |  |  |  | little to none |  |  |  |  |  |  |  |  | 
3 | CC[N+](C)(CC)CCC[n+]1c(-c2ccccc2)c2cc(N=[N+]=[N-])ccc2c2ccc(N)cc21 [PMA, propidium monoazide] | did not function well to discriminate live and dead |  |  |  |  |  |  |  | causes some modification of DNA | PMA staining is retained after fixation, with clear discrimination between PMA-positive and PMA-negative cells | greater difference in fluorescence intensity between PMA-positive and PMA-negative cells | found to enter viable MAP | not affected by PMA treatment | does not allow the determination of amount of living cells | increase in staining of live cells (loss of specificity) | bright, specific staining of dead cells | ineffective in suppressing qPCR signal from the killed bacteria | found to enter viable Salmonella serovar Enteritidis
